Reference: publication PMC12042115 (mLife, 2025)

Tested on: wild‐type BCG cells
Assay type: cell-based, M. bovis BCG
Conditions: up-regulated

O=C(Oc1ccc(Cl)cc1)c1ccc(N2CCOCC2)c([N+](=O)[O-])c1 [GDI‐5755]
Mean_Ratio (GDI5755_3d vs DMSO_3d), protein BCG_3567c (A0A0H3M9P9, Mtb Rv3503c, Ferredoxin, fdxD): 1.7 | Mean_Ratio (GDI5755_3d vs DMSO_3d), protein BCG_0108c (A0A0H3M9Q4, Mtb Rv0077c, Probable oxidoreductase): 1.7 | Mean_Ratio (GDI5755_3d vs DMSO_3d), protein BCG_0192 (A0A0H3M9W8, Mtb Rv0156, proton-translocating NAD(P)(+) transhydrogenase,pntAb): 1.4 | Mean_Ratio (GDI5755_3d vs DMSO_3d), protein BCG_0727 (A0A0H3M257, Mtb Rv0678, Transcriptional regulator, MmpR5): 1.5 | Mean_Ratio (GDI5755_3d vs DMSO_3d), protein BCG_0761 (A0A0H3M268, Mtb Rv0711, Possible arylsulfatase atsA): 2.1 | Mean_Ratio (GDI5755_3d vs DMSO_3d), protein BCG_0463c (A0A0H3M270, Mtb Rv0424c, Uncharacterized protein): 1.4 | Mean_Ratio (GDI5755_3d vs DMSO_3d), protein BCG_0835 (A0A0H3M322, Mtb Rv0784, Deacetylase): 1.4 | Mean_Ratio (GDI5755_3d vs DMSO_3d), protein BCG_0351 (A0A0H3M331, Mtb MRA_0320, Uncharacterized protein): 1.5 | Mean_Ratio (GDI5755_3d vs DMSO_3d), protein BCG_0391 (A0A0H3M380, Mtb Rv0352, Chaperone protein DnaJ): 1.5 | Mean_Ratio (GDI5755_3d vs DMSO_3d), protein BCG_1609 (A0A0H3M480, Mtb Rv1557, conserved transmembrane transport protein mmpL6): 1.6 | Mean_Ratio (GDI5755_3d vs DMSO_3d), protein BCG_2010c (A0A0H3M561, Mtb Rv1993c, DUF1490 family protein): 1.8 | Mean_Ratio (GDI5755_3d vs DMSO_3d), protein BCG_2346c (A0A0H3M622, Mtb Rv2325c, Energy-coupling factor transporter transmembrane protein EcfT): 1.8 | Mean_Ratio (GDI5755_3d vs DMSO_3d), protein BCG_2009c (A0A0H3M639, Mtb Rv1992c, Probable metal cation transporter P-type atpase G ctpG): 1.3 | Mean_Ratio (GDI5755_3d vs DMSO_3d), protein BCG_1549 (A0A0H3M660, Mtb MRA_1496, Conserved membrane protein): 1.5 | Mean_Ratio (GDI5755_3d vs DMSO_3d), protein BCG_2360c (A0A0H3M719, Mtb Rv2338c, Possible molybdopterin biosynthesis protein moeW): 1.4 | Mean_Ratio (GDI5755_3d vs DMSO_3d), protein BCG_2455 (A0A0H3M775, Mtb Rv2436, Ribokinase, rbsK): 1.3 | Mean_Ratio (GDI5755_3d vs DMSO_3d), protein BCG_0465c (A0A0H3M812, Mtb MRA_0431, Possible transmembrane protein): 1.7 | Mean_Ratio (GDI5755_3d vs DMSO_3d), protein BCG_0517 (A0A0H3M881, Mtb Rv0476, Possible conserved transmembrane protein): 1.4 | Mean_Ratio (GDI5755_3d vs DMSO_3d), protein BCG_2934c (A0A0H3M896, Mtb Rv2913c, Possible D-amino acid aminohydrolase): 1.4 | Mean_Ratio (GDI5755_3d vs DMSO_3d), protein BCG_0993 (A0A0H3M955, Mtb Rv0939, Possible bifunctional enzyme: 2-hydroxyhepta-2,4-diene-1,7-dioate isomerase + cyclase/dehydrase): 1.3 | Mean_Ratio (GDI5755_3d vs DMSO_3d), protein BCG_3532 (A0A0H3M969, HNH nuclease domain-containing protein): 1.4 | Mean_Ratio (GDI5755_3d vs DMSO_3d), protein BCG_3038 (A0A0H3MA42, Mtb Rv3016, Probable lipoprotein lpqA): 1.3 | Mean_Ratio (GDI5755_3d vs DMSO_3d), protein BCG_0289c (A0A0H3MA45, Mtb Rv0251c, HSP20 family protein/ Heat stress induced ribosome-binding protein A,acr2): 3.9 | Mean_Ratio (GDI5755_3d vs DMSO_3d), protein BCG_3881 (A0A0H3MA52, Mtb Rv3819, Uncharacterized protein): 1.4 | Mean_Ratio (GDI5755_3d vs DMSO_3d), protein BCG_3758 (A0A0H3MAA8, Mtb Rv3699, Methyltransferase domain-containing protein): 1.3 | Mean_Ratio (GDI5755_3d vs DMSO_3d), protein BCG_0380 (A0A0H3MAC3, Mtb Rv0341, Isoniazid inductible gene protein iniB): 1.7 | Mean_Ratio (GDI5755_3d vs DMSO_3d), protein BCG_0413c (A0A0H3MAE2, Mtb Rv0375c, carbon monoxyde dehydrogenase (Medium chain)): 1.6 | Mean_Ratio (GDI5755_3d vs DMSO_3d), protein BCG_0595c (A0A0H3MAN8, Mtb Rv0550c, Antitoxin VapB3): 1.4 | Mean_Ratio (GDI5755_3d vs DMSO_3d), protein BCG_3239 (A0A0H3MAP0, Conserved hypothetical alanine valine rich protein): 1.4 | Mean_Ratio (GDI5755_3d vs DMSO_3d), protein BCG_3281c (A0A0H3MAS0, Mtb Rv3252c, transmembrane alkane 1-monooxygenase alkB): 1.5 | Mean_Ratio (GDI5755_3d vs DMSO_3d), protein BCG_3298 (A0A0H3MAT3, Mtb Rv3269, peptidoglycan-based cell wall/chaperonin-like protein,pacL1): 2.3 | Mean_Ratio (GDI5755_3d vs DMSO_3d), protein BCG_3319c (A0A0H3MAV3, Mtb Rv3290c, L-lysine 6-transaminase, lat): 1.7 | Mean_Ratio (GDI5755_3d vs DMSO_3d), protein BCG_3928 (A0A0H3MAW6, Mtb Rv3865, ESX-1 secretion-associated protein EspF): 1.6 | Mean_Ratio (GDI5755_3d vs DMSO_3d), protein BCG_0725c (A0A0H3MAX0, Mtb Rv0676c,, conserved transmembrane transport protein mmpL5): 1.6 | Mean_Ratio (GDI5755_3d vs DMSO_3d), protein BCG_0774 (A0A0H3MAY5, Mtb Rv0724, Possible protease IV sppA (Endopeptidase IV)): 1.4 | Mean_Ratio (GDI5755_3d vs DMSO_3d), protein BCG_3476 (A0A0H3MB64, Mtb Rv3406, Probable dioxygenase): 1.6 | Mean_Ratio (GDI5755_3d vs DMSO_3d), protein BCG_1890c (A0A0H3MB87, Mtb Rv1854c, NADH dehydrogenase ndh): 1.5 | Mean_Ratio (GDI5755_3d vs DMSO_3d), protein BCG_3590 (A0A0H3MBE7, Mtb Rv3526, Rieske-type oxygenase): 1.4 | Mean_Ratio (GDI5755_3d vs DMSO_3d), protein BCG_2026 (A0A0H3MBK2, Mtb Rv2009, Antitoxin VapB15, BCG_2026): 1.4 | Mean_Ratio (GDI5755_3d vs DMSO_3d), protein BCG_2056c (A0A0H3MBM9, Mtb MRA_2052, conserved transmembrane protein): 1.4 | Mean_Ratio (GDI5755_3d vs DMSO_3d), protein BCG_1028c (A0A0H3MBR5, Mtb Rv0974c, Probable acetyl-/propionyl-coa carboxylase (Beta subunit) accD2): 1.4 | Mean_Ratio (GDI5755_3d vs DMSO_3d), protein BCG_3824c (A0A0H3MBY6, Mtb Rv3765c, Two component transcriptional regulatory protein，TcrX): 1.4 | Mean_Ratio (GDI5755_3d vs DMSO_3d), protein BCG_1101c (A0A0H3MBZ0, Mtb Rv1043c, Serine protease，BCG_1101c): 1.4 | Mean_Ratio (GDI5755_3d vs DMSO_3d), protein BCG_2613 (A0A0H3MCY6, Mtb Rv2590, Carboxylic acid reductase,fadD9): 1.6 | Mean_Ratio (GDI5755_3d vs DMSO_3d), protein BCG_2656 (A0A0H3MD16, Mtb Rv2629, Uncharacterized protein): 1.4 | Mean_Ratio (GDI5755_3d vs DMSO_3d), protein BCG_3528 (A0A0H3MEV5, Mtb Rv3463, Luciferase-like domain-containing protein): 1.4 | Mean_Ratio (GDI5755_3d vs DMSO_3d), protein BCG_2486c (A0A0H3MFK9, Mtb Rv2466c, DSBA-like thioredoxin domain-containing protein): 1.7 | Mean_Ratio (GDI5755_3d vs DMSO_3d), protein BCG_2502c (A0A0H3MFM6, Mtb Rv2484c, Diacylglycerol O-acyltransferase): 1.4 | Mean_Ratio (GDI5755_3d vs DMSO_3d), protein BCG_2658 (A0A0H3MG12, Mtb Rv2631, tRNA-splicing ligase RtcB): 1.4 | Mean_Ratio (GDI5755_3d vs DMSO_3d), protein BCG_2794c (A0A0H3MGD9, Mtb Rv2777c, Metal-dependent hydrolase): 1.5 | Mean_Ratio (GDI5755_3d vs DMSO_3d), protein BCG_2984 (A0A0H3MGS1, Mtb Rv2963, integral membrane protein): 1.5 | Mean_Ratio (GDI5755_3d vs DMSO_3d), protein BCG_3119c (A0A0H3MH35, Mtb Rv3094c, Hydroxylase): 1.4 | Mean_Ratio (GDI5755_3d vs DMSO_3d), protein BCG_3299 (A0A0H3MHJ0, Mtb Rv3270, metal cation-transporting P-type atpase C ctpC): 1.5 | Mean_Ratio (GDI5755_3d vs DMSO_3d), protein BCG_3591 (A0A0H3MID2, Mtb Rv3527, Uncharacterized protein): 1.6 | Mean_Ratio (GDI5755_3d vs DMSO_3d), protein BCG_3917c (A0A0H3MJE2, Mtb Rv3854c, Monooxygenase ethA): 1.5 | Mean_Ratio (GDI5755_3d vs DMSO_3d), protein BCG_0095 (A1KEN2, Mtb Rv0064, UPF0182 protein BCG_0095): 1.4 | Mean_Ratio (GDI5755_3d vs DMSO_3d), protein BCG_0181 (A1KEW5, Mtb Rv0145, S-adenosyl-L-methionine-dependent methyltransferase BCG_0181): 1.8 | Mean_Ratio (GDI5755_3d vs DMSO_3d), protein BCG_0182 (A1KEW6, Mtb Rv0146, Putative S-adenosyl-L-methionine-dependent methyltransferase): 2.8 | Mean_Ratio (GDI5755_3d vs DMSO_3d), protein BCG_0248 (A1KF31, Mtb Rv0211, Phosphoenolpyruvate carboxykinase [GTP], pckG): 2.3 | Mean_Ratio (GDI5755_3d vs DMSO_3d), protein BCG_0389 (A1KFH2, Mtb Rv0350, Chaperone protein DnaK/Heat shock protein 70): 1.5 | Mean_Ratio (GDI5755_3d vs DMSO_3d), protein BCG_0390 (A1KFH3, Mtb Rv0351, Protein GrpE/HSP-70 cofactor): 1.4 | Mean_Ratio (GDI5755_3d vs DMSO_3d), protein BCG_0516 (A1KFU9, Mtb Rv0475, Heparin-binding hemagglutinin): 1.3 | Mean_Ratio (GDI5755_3d vs DMSO_3d), protein BCG_0605c (A1KG37, Mtb Rv0560c, Benzoquinone methyltransferase/Rv0560c/htm): 2.5 | Mean_Ratio (GDI5755_3d vs DMSO_3d), protein BCG_0883 (A1KGW3, Mtb Rv0830, S-adenosyl-L-methionine-dependent methyltransferase): 1.9 | Mean_Ratio (GDI5755_3d vs DMSO_3d), protein BCG_1036 (A1KHB7, Mtb Rv0981, Response regulator MprA): 1.4 | Mean_Ratio (GDI5755_3d vs DMSO_3d), protein BCG_1284 (A1KI12, Mtb Rv1224, Sec-independent protein translocase protein TatB): 1.4
